# Test results: patent publication US20050148598A1, “Trioxane derivatives” (priority 2001, published 2005)
# pIC50: −log10 of the molar value. Like-named read-outs stand apart in the source and are kept apart here.
# How the values were obtained:
# L1210 cells = conditions: cited from earlier work
# [1] = system: K1 strain of P. falciparum; experiment: 48-h [3H]-hypoxanthine incorporation antimalarial sensitivity assay, K1 strain; assay type: cell-based
# Procedure: (§1) The antimalarial activity of the new compounds was assessed using two strains of P. falciparum from Thailand: (a) the uncloned K1 strain which is known to be CQ resistant and (b) the HB3 strain which is sensitive to all antimalarials. Parasites were maintained in continuous culture using the method of Trager and Jenson (J. Parasitol., 1977, 63, 883-886). Cultures were grown in flasks containing human erythrocytes (2-5%) with parasitemia in the range of 1% to 10% suspended in RPMI 1640 medium supplemented with 25 mM HEPES and 32 mM NaHCO3, and 10% human serum (complete medium). Cultures were gassed with a mixture of 3% O2, 4% CO2 and 93% N2.
# (§2) Antimalarial activity was assessed with an adaption of the 48-h sensitivity assay of Desjardins et al. (Antimicrob. Agents. Chemother., 1979, 16, 710-718) using [^3H]-hypoxanthine incorporation as an assessment of parasite growth. Stock drug solutions were prepared in 100% dimethylsulphoxide (DMSO) and diluted to the appropriate concentration using complete medium. Assays were performed in sterile 96-well microtitre plates, each plate containing 200 μl of parasite culture (2% parasitemia, 0.5% haematocrit) with or without 10 μl drug dilutions. Each drug was tested in triplicate and parasite growth was compared to control wells (which constituted 100% parasite growth). After 24-h incubation at 37° C., 0.5 μCi hypoxanthine was added to each well. Cultures were incubated for a further 24 h before they were harvested onto filter-mats, dried for 1 h at 55° C. and counted using a Wallac 1450 Microbeta Trilux Liquid scintillation and luminescence counter. IC50 values were calculated by interpolation of the probit transformation of the log dose—response curve.
# [2] = system: HB3 strain of P. falciparum; experiment: 48-h [3H]-hypoxanthine incorporation antimalarial sensitivity assay, HB3 strain; assay type: cell-based; conditions: HB3 strain (sensitive) of P. falciparum in vitro
# Procedure: as §1, §2
# NCI-H460 (Lung) = experiment: NCI 3-cell line anticancer assay, NCI-H460; assay type: cell-based; conditions: 1.00E−04 Molar, 48 hours, sulforhodamine B
# Procedure: (§3) The anticancer activity of these compounds of the present invention was also assessed, by NCI 3-cell line anticancer assay. In this protocol, each cell line is inoculated and preincubated on a microtiter plate. Test agents are then added at a single concentration and the culture incubated for 48 hours. End-point determinations are made with sulforhodamine B, a protein-binding dye. Results for each test agent are reported as the percentage of growth of the treated cells when compared to the untreated control cells. Compounds which reduce the growth of any one of the cells lines to 32% or less (negative numbers indicate cell kill) are passed on for evaluation in the full panel of 60 cell lines over a 5-log dose range.
# MCF7 (Breast) = experiment: NCI 3-cell line anticancer assay, MCF7; assay type: cell-based; conditions: 1.00E−04 Molar, 48 hours, sulforhodamine B
# Procedure: as §3
# SF-268 (CNS) = experiment: NCI 3-cell line anticancer assay, SF-268; assay type: cell-based; conditions: 1.00E−04 Molar, 48 hours, sulforhodamine B
# Procedure: as §3
# [3] = Plasmodium falciparum, K1 strain (CQ resistant) of P. falciparum in vitro, read-out: IC50
# [4] = K1 strain (CQ resistant) of P. falciparum in vitro, read-out: IC50
molecule,measurement,setting,value
CCNCCCNCCCCNCCCNCC [DESPM],cytotoxic effects in L1210 cells,L1210 cells,0.2 µM
"C[C@@H]1CCC2[C@@H](C)[C@@H](OCc3ccc(CN4CCN(Cc5ccccc5)CC4)cc3)OC3O[C@@]4(C)CC[C@@H]1[C@]32OO4 (stereo partly drawn) [Compound 13e, 10β-[[4-[(Benzylpiperazyl)methyl]benzyl]oxy]dihydroartemisinin]",pIC50,[1]; [3],8.42
same,pIC50,[2]; Plasmodium falciparum,8.74
"C[C@H]1[C@@H](OCc2cccc(CN3CCN(c4ccc(Cl)cc4)CC3)c2)O[C@@H]2O[C@@]3(C)CC[C@H]4[C@H](C)CC[C@@H]1[C@@]24OO3 [Compound 13h, 10β-[[3-[(4-Chlorophenylpiperazyl)methyl]benzyl]oxy]dihydroartemisinin]",pIC50,[1]; [4],7.88
same,"percentage of growth of the treated cells compared to untreated control cells, NCI-H460 (Lung)",NCI-H460 (Lung),22%
same,"percentage of growth of the treated cells compared to untreated control cells, MCF7 (Breast)",MCF7 (Breast),11%
same,"percentage of growth of the treated cells compared to untreated control cells, SF-268 (CNS)",SF-268 (CNS),31%
"CC1CCC2C(C)C(OCc3ccc(CN4CCN(c5ccc(F)cc5)CC4)cc3)OC3OC4(C)CCC1C32OO4 (stereo not drawn) [Compound 13c, 10β-[[4-[(4-Fluorophenylpiperazyl)methyl]benzyl]oxy]dihydroartemisnin]",pIC50,[1]; [4],8.20
same,pIC50,[2],8.64
same,"percentage of growth of the treated cells compared to untreated control cells, NCI-H460 (Lung)",NCI-H460 (Lung),12%
same,"percentage of growth of the treated cells compared to untreated control cells, MCF7 (Breast)",MCF7 (Breast),13%
same,"percentage of growth of the treated cells compared to untreated control cells, SF-268 (CNS)",SF-268 (CNS),27%
"CCN(CC)CCCC(C)Nc1ccnc2cc(Cl)ccc12 (stereo not shown) [Chloroquine, chloroquine, reference compound]",pIC50,"[1]; Plasmodium falciparum, K1",6.59
CCNCCCNCCCNCCCNCC [DENSPM],cytotoxic effects in L1210 cells,L1210 cells,1.3 µM
CCNCCCCNCCCCNCCCCNCC [DEHSPM],cytotoxic effects in L1210 cells,L1210 cells,0.06 µM
"CC1CCC2C(C)C(OCc3cccc(CN4CCN(c5ccc([N+](=O)[O-])cc5)CC4)c3)OC3OC4(C)CCC1C32OO4 (stereo not drawn) [Compound 13g, 10β-[[3-[(4-Nitrophenylpiperazyl)methyl]benzyl]oxy]dihydroartemisinin]",pIC50,[1]; [4],8.37
same,pIC50,[2],8.37
"CC1CCC2C(C)C(OCc3cccc(CN4CCN(c5cccc(C(F)(F)F)c5)CC4)c3)OC3OC4(C)CCC1C32OO4 (stereo not drawn) [Compound 13i, 10β-[[3-[(3-Trifluoromethylphenylpiperazyl)methyl]benzyl]oxy]dihydroartemisinin]",pIC50,[1]; [4],7.65
same,"percentage of growth of the treated cells compared to untreated control cells, NCI-H460 (Lung)",NCI-H460 (Lung),15%
same,"percentage of growth of the treated cells compared to untreated control cells, MCF7 (Breast)",MCF7 (Breast),10%
same,"percentage of growth of the treated cells compared to untreated control cells, SF-268 (CNS)",SF-268 (CNS),29%
"CC1CCC2C(C)C(OCc3ccc(CN4CCN(c5ccc(C(F)(F)F)cc5)CC4)cc3)OC3OC4(C)CCC1C32OO4 (stereo not drawn) [Compound 13d, 10β-[[4-[(4-Trifluoromethylphenylpiperazyl)methyl]benzyl]oxy]dihydroartemisinin]",pIC50,[1]; [4],7.90
same,pIC50,[2],8.09
"CO[C@H]1O[C@@H]2O[C@@]3(C)CC[C@H]4[C@H](C)CC[C@@H]([C@H]1C)[C@@]24OO3 [Artemether, artemether, reference compound]",pIC50,[1]; [3],8.19
same,pIC50,[2]; Plasmodium falciparum,8.04
10β-[[4-[Phenylpiperazyl)methyl]benzyl]dihydroartemisinin [Compound 13a],pIC50,[1]; [4],8.09
"CC1CCC2C(C)C(OCc3cccc(CN4CCN(c5ccc(F)cc5)CC4)c3)OC3OC4(C)CCC1C32OO4 (stereo not drawn) [Compound 13j, 10β-[[3-[(4-Fluorophenylpiperazyl)methyl]benzyl]oxy]dihydroartemisinin]",pIC50,[1]; [4],7.90
same,pIC50,[2],7.90
"CC1CCC2C(C)C(OCc3cccc(CN4CCN(c5ccccc5)CC4)c3)OC3OC4(C)CCC1C32OO4 (stereo not drawn) [Compound 13f, 10β-[[3-[(Phenylpiperazyl)methyl]benzyl]oxy]dihydroartemisinin]",pIC50,[1]; [4],8.18
same,pIC50,[2],8.47
CC1CCC2C(C)C(OCc3ccc(CN4CCN(c5ccc([N+](=O)[O-])cc5)CC4)cc3)OC3OC4(C)CCC1C32OO4 (stereo not shown) [Compound 13b],pIC50,[1]; [4],6.86
